From EP3375430A1, “FRAGRANCE COMPOSITIONS” (Takasago International Corporation, priority 2017, dated 2018)
Blank lines part the entries; values can stand above or below the compound they belong to.

Legend:
[1] = Amount of fragrance ingredients retained on paper blotter after evaporation (ethanol extraction, GC-MS); format: physicochemical
In short: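 100 µL of fragrance formulation applied to paper blotters kept at 32°C open to air; at each time three blotters extracted 1 h in ethanol with methyl decanoate internal standard and analysed by GC-MS (HP-5MS, 50–280°C). Amounts averaged over triplicates and expressed as percent of time-zero level.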

[2] = Headspace concentration of fragrance ingredients over blotter (thermal desorption GC-MS); format: physicochemical
Experimental: The headspace concentration of individual ingredients of fragrance TAK, as formulated in either a conventional EdT (EdT1) or a fragrance composition of the invention (C1), was assessed by the method described below.
A 10 cm length was cut from a standard perfumers' blotter. A sample of 100µL volume was applied to the upper surface of the blotter with a syringe. The blotter was placed on a hot plate thermostatted at 32°C and left to equilibrate for 5 minutes. Two desorption tubes (6cm length 4mm internal diameter) each containing 2 cm length of Tenax TA adsorbent were fitted to the glass part of a headspace apparatus shown in figure 9. The glass part was fitted over the blotter, a metering pump was connected to one of the desorption tubes and air was drawn through the apparatus flushing the headspace over the blotter at a rate of 17mL/min. Sampling continued for about 16.5 minutes until 280mL of air had been extracted. Then the outlet desorption tube was analysed by gas chromatography as described below. The glass part was removed from the blotter which was left on the hotplate until the next sampling time when two fresh desorption tubes were fitted and the extraction procedure repeated for a further 280mL of extracted headspace.
• Initial Temp: 50°C • Initial Time: 5 min • Rate: 3°C /min • Final Temp: 250°C • Final Time: 20 min • Run Time: 91.67 min
• Column: HP-5MS 30m * 0.25mm * 0.25µm • Gas: Helium • Constant pressure 12.675 psi
• Initial Temp: -30°C • Equilibration Time: 0.05 min • Initial Time: 0.00 min • Rate 12°C / min • End Temp: 260°C • Hold Time: 10 min
Temperature program • Initial Temp: 35°C • Delay Time: 0.30 min • Initial Time: 0.00 min • Rate: 30°C / min • End Temp: 250°C • Hold Time: 5.00 min
TDU Settings • Transfer Temp: 250°C • Transfer Temp Mode: Fixed • Desorption Mode: splitless • Sample mode: Retain tube - standby cooling • Standby Temp: 50°C
Detector MS • MS 5973 • Mass range: 35 to 350 • Threshold: 150 • Mass Quad: 150°C • Mass Source: 230°C
Following the procedure of example 2, the headspace concentration of representative ingredients of fragrance COM1 was determined. COM1 was dosed at 5 and 20 % either in control EdT3 and EdT4 or in compositions of the invention C7 and C8, as shown in table 10.
The headspace concentration of individual ingredients of fragrance TAK (see Table 1), as formulated in either a conventional EdT (EdT1) or fragrance compositions of the invention (C14, C15), was assessed by the method described in example 2.

- amount of fragrance ingredient retained on blotter (percentage of the initial amount) ([1]; Table 3, fragrance TAK in C1, 15 min, 32°C): 78%
- amount of fragrance ingredient retained on blotter (percentage of the initial amount) ([1]; Table 3, fragrance TAK in C1, 60 min, 32°C): 79%
- amount of fragrance ingredient retained on blotter (percentage of the initial amount) ([1]; Table 3, fragrance TAK in C1, 120 min, 32°C): 75%
- amount of fragrance ingredient retained on blotter (percentage of the initial amount) ([1]; Table 3, fragrance TAK in C1, 240 min, 32°C): 72%
- amount of fragrance ingredient retained on blotter (percentage of the initial amount) ([1]; Table 3, fragrance TAK in C1, 480 min, 32°C): 51%
- amount of fragrance ingredient retained on blotter (percentage of the initial amount) ([1]; Table 3, fragrance TAK in EdT1, 15 min, 32°C): 91%
- amount of fragrance ingredient retained on blotter (percentage of the initial amount) ([1]; Table 3, fragrance TAK in EdT1, 60 min, 32°C): 84%
- amount of fragrance ingredient retained on blotter (percentage of the initial amount) ([1]; Table 3, fragrance TAK in EdT1, 120 min, 32°C): 75%
- amount of fragrance ingredient retained on blotter (percentage of the initial amount) ([1]; Table 3, fragrance TAK in EdT1, 240 min, 32°C): 65%
- amount of fragrance ingredient retained on blotter (percentage of the initial amount) ([1]; Table 3, fragrance TAK in EdT1, 480 min, 32°C): 23%
- amount of fragrance ingredient retained on blotter (percentage of the initial amount) ([1]; Table 3, fragrance TAK in EdT1 or C1, T0, set at 100% (normalisation)): 100%
- amount of fragrance ingredient retained on blotter (percentage of the initial amount) ([1]; Table 4, fragrance TAK in C2, 15 min, 32°C): 98%
- amount of fragrance ingredient retained on blotter (percentage of the initial amount) ([1]; Table 4, fragrance TAK in C2, 480 min, 32°C): 49%
- amount of fragrance ingredient retained on blotter (percentage of the initial amount) ([1]; Table 4, fragrance TAK in EdT1, 15 min, 32°C): 87%
- amount of fragrance ingredient retained on blotter (percentage of the initial amount) ([1]; Table 4, fragrance TAK in EdT1, 480 min, 32°C): 18%
- amount of fragrance ingredient retained on blotter (percentage of the initial amount) ([1]; Table 4, fragrance TAK in EdT1 or C2, T0, set at 100% (normalisation)): 100%
- amount of fragrance ingredient retained on blotter (percentage of the initial amount) ([1]; Table 5, fragrance TAK in C3, 15 min, 32°C): 88%
- amount of fragrance ingredient retained on blotter (percentage of the initial amount) ([1]; Table 5, fragrance TAK in C3, 60 min, 32°C): 92%
- amount of fragrance ingredient retained on blotter (percentage of the initial amount) ([1]; Table 5, fragrance TAK in C3, 120 min, 32°C): 90%
- amount of fragrance ingredient retained on blotter (percentage of the initial amount) ([1]; Table 5, fragrance TAK in C3, 240 min, 32°C): 87%
- amount of fragrance ingredient retained on blotter (percentage of the initial amount) ([1]; Table 5, fragrance TAK in C3, 480 min, 32°C): 60%
- amount of fragrance ingredient retained on blotter (percentage of the initial amount) ([1]; Table 5, fragrance TAK in C3, 1440 min, 32°C): 45%
- amount of fragrance ingredient retained on blotter (percentage of the initial amount) ([1]; Table 5, fragrance TAK in EdT1, 15 min, 32°C): 91%
- amount of fragrance ingredient retained on blotter (percentage of the initial amount) ([1]; Table 5, fragrance TAK in EdT1, 60 min, 32°C): 84%
- amount of fragrance ingredient retained on blotter (percentage of the initial amount) ([1]; Table 5, fragrance TAK in EdT1, 120 min, 32°C): 75%
- amount of fragrance ingredient retained on blotter (percentage of the initial amount) ([1]; Table 5, fragrance TAK in EdT1, 240 min, 32°C): 65%
- amount of fragrance ingredient retained on blotter (percentage of the initial amount) ([1]; Table 5, fragrance TAK in EdT1, 480 min, 32°C): 23%
- amount of fragrance ingredient retained on blotter (percentage of the initial amount) ([1]; Table 5, fragrance TAK in EdT1, 1440 min, 32°C): 6%
- amount of fragrance ingredient retained on blotter (percentage of the initial amount) ([1]; Table 5, fragrance TAK in EdT1 or C3, T0, set at 100% (normalisation)): 100%
- amount of fragrance ingredient retained on blotter (percentage of the initial amount) ([1]; Table 6, fragrance TAK in C4, 15 min, 32°C): 99%
- amount of fragrance ingredient retained on blotter (percentage of the initial amount) ([1]; Table 6, fragrance TAK in C4, 60 min, 32°C): 92%
- amount of fragrance ingredient retained on blotter (percentage of the initial amount) ([1]; Table 6, fragrance TAK in C4, 120 min, 32°C): 88%
- amount of fragrance ingredient retained on blotter (percentage of the initial amount) ([1]; Table 6, fragrance TAK in C4, 240 min, 32°C): 87%
- amount of fragrance ingredient retained on blotter (percentage of the initial amount) ([1]; Table 6, fragrance TAK in C4, 480 min, 32°C): 52%
- amount of fragrance ingredient retained on blotter (percentage of the initial amount) ([1]; Table 6, fragrance TAK in EdT1, 15 min, 32°C): 91%
- amount of fragrance ingredient retained on blotter (percentage of the initial amount) ([1]; Table 6, fragrance TAK in EdT1, 60 min, 32°C): 84%
- amount of fragrance ingredient retained on blotter (percentage of the initial amount) ([1]; Table 6, fragrance TAK in EdT1, 120 min, 32°C): 75%
- amount of fragrance ingredient retained on blotter (percentage of the initial amount) ([1]; Table 6, fragrance TAK in EdT1, 240 min, 32°C): 65%
- amount of fragrance ingredient retained on blotter (percentage of the initial amount) ([1]; Table 6, fragrance TAK in EdT1, 480 min, 32°C): 23%
- amount of fragrance ingredient retained on blotter (percentage of the initial amount) ([1]; Table 6, fragrance TAK in EdT1 or C4, T0, set at 100% (normalisation)): 100%
- headspace concentration in composition C1 compared to control EdT1 ([2]; fragrance TAK, T0 + 8h, Figure 4): significantly greater
SMILES: CC(C=O)Cc1ccc(C(C)(C)C)cc1 (stereo not shown) [Lilial™, 3-(4-tert-Butylphenyl)-2-methylpropanal]

- amount of fragrance ingredient retained on blotter (percentage of the initial amount) ([1]; Table 9, fragrance COM1 in C5, T0 + 15 min): 84.6%
- amount of fragrance ingredient retained on blotter (percentage of the initial amount) ([1]; Table 9, fragrance COM1 in C5, T0 + 480 min): 19.1%
- amount of fragrance ingredient retained on blotter (percentage of the initial amount) ([1]; Table 9, fragrance COM1 in C5, T0 +1440 min): 2.62%
- amount of fragrance ingredient retained on blotter (percentage of the initial amount) ([1]; Table 9, fragrance COM1 in C6, T0 + 15 min): 73.2%
- amount of fragrance ingredient retained on blotter (percentage of the initial amount) ([1]; Table 9, fragrance COM1 in C6, T0 + 480 min): 14%
- amount of fragrance ingredient retained on blotter (percentage of the initial amount) ([1]; Table 9, fragrance COM1 in C6, T0 +1440 min): 3.1%
- amount of fragrance ingredient retained on blotter (percentage of the initial amount) ([1]; Table 9, fragrance COM1 in EdT2, C5 or C6, T0, set at 100% (normalisation)): 100%
- amount of fragrance ingredient retained on blotter (percentage of the initial amount) ([1]; Table 9, fragrance COM1 in EdT2, T0 + 15 min): 75.7%
- amount of fragrance ingredient retained on blotter (percentage of the initial amount) ([1]; Table 9, fragrance COM1 in EdT2, T0 + 480 min): 8.41%
- amount of fragrance ingredient retained on blotter (percentage of the initial amount) ([1]; Table 9, fragrance COM1 in EdT2, T0 +1440 min): 4.93%
- presence in the headspace of composition C8 compared to control EdT4 ([2]; COM1 dosed at 20 wt%, after 8 hours): more present
SMILES: CC/C=C(\C)C(O)CCCCC (stereo not shown) [Undecavertol™, (E)-4-methyldec-3-en-5-ol]
